Entries after “also recorded” stand apart in the source; their conditions may differ.
Assays:
[1] = tested on: NCI-H2030; assay: Cell proliferation assay (CellTiter-Glo), drug combination synergy by Bliss and ZIP models, NCI-H2030; format: cell-based; conditions: combination of compound 1 with KRAS G12C inhibitor (MRTX849, AMG510, ARS-1620 or JDQ-443); for synergy (anti-proliferation effects): NCI-H2030, SMARCA4 low/KRAS G12C, day 7; for Bliss synergy score / ZIP synergy score: NCI-H2030, synergistic effect likely where scores larger than 10
Method: FIG. 2. […] Lung cancer NCI-H2030 cells (SMARAC4 low/KRAS G12C) were treated with KRAS G12C inhibitor (MRTX849, AMG510, ARS1629 or JDQ-443) and with a SMARCA2 degrader (compound 1) in a different dose-range. Cell viability was analyzed on day 7 using Cell-titer Glo.
FIG. 5. Bliss and ZIP synergy scores of H2030 cells treated with a SMARCA2 degrader (compound 1) and a KRAS targeting therapy (MRTX849, AMG510, ARS1629 or JDQ443). Synergistic effect is likely where synergy scores are larger than 10.
(§1) The degree of combination synergy, or antagonism, is quantified by comparing the observed drug combination response against the expected response, calculated using a reference model that assumes no interaction between drugs. Drug synergy was determined using the Bliss and Zero interaction potency (ZIP) reference models.
(§2) The Bliss independence model assumes a stochastic process in which two drugs elicit their effects independently, and the expected combination effect can be calculated based on the probability of independent events; The ZIP model captures the drug interaction relationships by comparing the change in the potency (effect at certain dose level) of the dose-response curves between individual drugs and their combinations. ZIP assumes that two non-interacting drugs are expected to incur minimal changes in their dose-response curves. Model calculations can be found at www.ncbi.nlm.nih.gov/pmc/articles/PMC4759128/.
(§3) Cell proliferation assay: Cells were plated in 384-well white-walled, clear-bottom plates in standard tissue culture conditions. 250 cells per well of the NCI-H2030 (ATCC, CRL-5914) cell line was seeded in RPMI-1640 medium, FBS serum to a final concentration of 10%, 100 cells per well of the UM-UC-3 (ATCC, CRL-1749) cell line was seeded in EMEM medium, FBS serum to a final concentration of 10%. The day after plating, serial dilutions of two compounds were plated in dose-response matrices in quadruplicate, including DMSO controls, using a Tecan D300e Digital Dispenser (Tecan Group Ltd. Männedorf, Switzerland). All wells were normalized to highest total volume of DMSO. 7 days later the CellTiter-Glo® 2.0 Cell Viability Assay (CTG) (#G9242, Promega, Madison, WI) was used to measure cell viability effects of drug combinations. The expected drug combination responses were calculated based on Bliss and ZIP reference model using SynergyFinder (Ianevski et al, 2020). Deviations between observed and expected responses with positive and negative values denote synergy and antagonism respectively. Synergistic effect is likely where synergy scores are larger than 10. MRTX849 (Adagrasib, Catalog No. S8884) and ARS-1620 (Catalog No. S8707) were purchased from Selleck Chemicals. AMG510 (Sotorasib, Catalog No. HY-114277) and JDQ-443 (Catalog No. HY-139612) were purchased from MedChemExpress.
NCI-H2030 is a non-small cell lung cancer cell line that express low SMARCA4 and KRAS G12C mutation. Combination therapy was applied to H2030 cells and % viable cells was calculated (see FIG. 2). Bliss and ZIP scores are larger than 10, which indicates compound 1 and KRAS G12C inhibitors will likely show synergistic effects (FIG. 5).

[2] = tested on: UM-UC-3; assay: Cell proliferation assay (CellTiter-Glo), drug combination synergy by Bliss and ZIP models, UM-UC-3; format: cell-based, human; conditions: for synergy (anti-proliferation effects): combination of compound 1 with KRAS G12C inhibitor (MRTX849, AMG510, ARS1629 or JDQ443), UM-UC-3, SMARCA4 damaging mutation/KRAS G12C, day 7
Method: FIG. 3. […] Bladder cancer UM-UC-3 cells (SMARAC4 damaging mutation/KRAS G12C) were treated with KRAS G12C inhibitor (MRTX849, AMG510, ARS1629 or JDQ443) and with a SMARCA2 degrader (compound 1) in a different dose-range. Cell viability was analyzed on day 7 using Cell-titer Glo.
FIG. 6. Bliss and ZIP synergy scores of UM-UC-3 cells treated with a SMARCA2 degrader (compound 1) and a KRAS targeting therapy (MRTX849, AMG510, ARS1629 or JDQ443). Synergistic effect is likely where synergy scores are larger than 10.
as §1, §2, §3
UC-UM-3 is a human bladder transitional cell carcinoma cancer cell line that expresses SMARCA4 damaging mutation and KRAS G12C mutation. Combination therapy was applied to UM-UC-3 cells and % viable cells was calculated (FIG. 3). Bliss and ZIP scores are larger than 10, which indicates compound 1 and KRAS G12C inhibitors will likely show synergistic effects (FIG. 6).

[3] = tested on: NCI-H358 cells; assay: Cell viability (Cell-titer Glo), drug combination, control line NCI-H358; format: cell-based; conditions: combination of compound 1 with KRAS G12C inhibitor (MRTX849 or AMG510); NCI-H358, SMARCA4 WT/KRAS G12C; day 7
Method: (§4) FIG. 4. […] Lung cancer NCI-H838 cells (SMARAC4 damaging mutation/KRAS WT) or NCI-H358 cells (SMARCA4 WT/KRAS G12C) were treated with KRAS G12C inhibitor (MRTX849 or AMG510) and with a SMARCA2 degrader (compound 1) in a different dose-range. Cell viability was analyzed on day 7 using Cell-titer Glo.
as §3, with “Synergistic effect is likely where synergy scores are larger than 10. MRTX849 (Adagrasib, Catalog No. S8884) and ARS-1620 (Catalog No. S8707) were purchased from Selleck Chemicals. AMG510 (Sotorasib, Catalog No. HY-114277) and JDQ-443 (Catalog No. HY-139612) were purchased from MedChemExpress.” left out

[4] = tested on: UM-UC-3 xenograft tumors; assay: Tumor volume in mice with UM-UC-3 xenograft tumors; format: in vivo; conditions: for tumor volume reduction (synergy): combination: compound 1 100 mg/kg s.c. Q3D and MRTX849 10 mg/kg p.o. QD, UM-UC-3
Method: FIG. 7. Plot of mean tumor volume vs. dosing time for UM-UC-3 cells treated with a SMARCA2 degrader (compound 1) and a KRAS targeting therapy (MRTX849).
(§5) The concentration of compound 1 was 100 mg/kg s.c. Q3D and the concentration of MRTX849 was 10 mg/kg p.o. QD. Statistical analysis used the two-tailed Mann-Whitney test versus vehicle, with *P<0.05, **P<0.01 and ***P<0.001.

[5] = tested on: NCI-H838 cells; assay: Cell viability (Cell-titer Glo), drug combination, control line NCI-H838; format: cell-based; conditions: combination of compound 1 with KRAS G12C inhibitor (MRTX849 or AMG510); NCI-H838, SMARCA4 damaging mutation/KRAS WT; day 7
Method: as §4
as §3, with “Synergistic effect is likely where synergy scores are larger than 10. MRTX849 (Adagrasib, Catalog No. S8884) and ARS-1620 (Catalog No. S8707) were purchased from Selleck Chemicals. AMG510 (Sotorasib, Catalog No. HY-114277) and JDQ-443 (Catalog No. HY-139612) were purchased from MedChemExpress.” left out

[6] = tested on: H2030 xenograft tumors; assay: Tumor volume in mice with H2030 xenograft tumors; format: in vivo; conditions: for tumor volume reduction (synergy): combination: compound 1 100 mg/kg s.c. Q3D and MRTX849 10 mg/kg p.o. QD, H2030
Method: FIG. 8. Plot of mean tumor volume vs. dosing time for H2030 cells treated with a SMARCA2 degrader (compound 1) and a KRAS targeting therapy (MRTX849).
as §5

[7] = combination of compound 1 with KRAS G12C inhibitors, UM-UC-3, synergistic effect likely where scores larger than 10

| Compound | synergy (anti-proliferation effects) [1] | Bliss synergy score [1] | ZIP synergy score [1] | synergy (anti-proliferation effects) [2] | synergistic effects (cell viability) [3] | enlargement of tumor volumes ([4]; combination of compound 1 and a KRAS targeting therapy, mice with UM-UC-3 xenograft tumors) | tumor volume reduction (synergy) [4] | synergistic effects (cell viability) [5] | Bliss synergy score [2, 7] | ZIP synergy score [2, 7] | enlargement of tumor volumes ([6]; combination of compound 1 and a KRAS targeting therapy, mice with H2030 xenograft tumors) | tumor volume reduction (synergy) [6] | synergy (anti-proliferation effects) ([1]; listed as ARS1629) |
| --- | --- | --- | --- | --- | --- | --- | --- | --- | --- | --- | --- | --- | --- |
| C=CC(=O)N1CCN(c2nc(=O)n(-c3c(C)ccnc3C(C)C)c3nc(-c4c(O)cccc4F)c(F)cc23)[C@@H](C)C1 (atropisomer, axis not shown) [JDQ-443] | synergistic anti-proliferation effects; also recorded: Excellent synergy | > 10 | > 10 | synergistic anti-proliferation effects | – | – | – | – | – | – | – | – | – |
| Cc1ncsc1-c1ccc([C@H](C)NC(=O)[C@@H]2C[C@@H](O)CN2C(=O)[C@@H](c2cc(O[C@@H](C)CN3CC[C@@H](N4CCN5c6cc(-c7ccccc7O)nnc6NC[C@H]5C4)C3)no2)C(C)C)cc1 [Compound 1] | synergistic anti-proliferation effects; also recorded: Excellent synergy; also recorded: potent synergistic interaction | > 10 | > 10 | synergistic anti-proliferation effects; also recorded: Excellent synergy; also recorded: potent synergistic interaction | do not show synergistic effects | can slow down the enlargement of tumor volumes | synergistic effects for tumor volume reduction | do not show synergistic effects | > 10 | > 10 | can slow down the enlargement of tumor volumes | synergistic effects for tumor volume reduction | – |
| C=C(F)C(=O)N1CCN(c2nc(OC[C@@H]3CCCN3C)nc3c2CCN(c2cccc4cccc(Cl)c24)C3)C[C@@H]1CC#N [MRTX849, adagrasib] | synergistic anti-proliferation effects; also recorded: Excellent synergy | > 10 | > 10 | synergistic anti-proliferation effects | do not show synergistic effects | – | synergistic effects for tumor volume reduction | do not show synergistic effects | – | – | – | synergistic effects for tumor volume reduction | – |
| C=CC(=O)N1CCN(c2ncnc3c(F)c(-c4c(O)cccc4F)c(Cl)cc23)CC1 [ARS-1620] | Excellent synergy | > 10 | > 10 | synergistic anti-proliferation effects | – | – | – | – | – | – | – | – | synergistic anti-proliferation effects |

Source: patent publication US20260373123A1, “IMPROVED TREATMENT OF CANCERS USING COMBINATIONS OF SMARCA2 DEGRADERS AND KRAS TARGETING THERAPIES” (Prelude Therapeutics Incorporated, priority 2022, published 2026)
